Converted amounts (≈) assume the structure as drawn. Where two headings read alike, the source gives them in different places.
Experiments:
[1] = Pharmacokinetics in cassette in male cynomolgus monkeys for Kp measurement; type: in vivo; details: cynomolgus monkey, 0.5 mg/kg, intravenous
Experimental: F.1 Test Animal: Cynomolgus Monkeys from Labcorp 8298417 Maintained at Labcorp-Madison
F.2 Pharmaceutical Formulation and Administration
Test compound was dissolved in the vehicle of 10% DMSO, 10% ethanol, 40% polyethylene glycol 300, and 40% propylene glycol to get 0.5 mg/mL test compound solution. The compound was administered by intravenous administration at a dose of 1 mL/kg. The intravenous dose was administered as a bolus injection followed by an approximately 2-hour infusion via an indwelling catheter in a saphenous or cephalic vein. Fasting was not required.
• Collection time: • PK for Plasma: Predose, 0.25, 1, 1.5 and 2 hours postdose (based on start of infusion) • PK for Whole Blood: 1.5 hour postdose • Anticogulant: K2EDTA • Volume: • PK for Plasma: Approximately 0.5 mL • PK for Whole Blood: Approximately 0.1 mL • Collection Site: Femoral vein; saphenous or cephalic vein

[2] = MDR1/BCRP assay: permeability in cPgp-KO-MDCK-WT cells; type: in vitro ADME; details: dog, pH 7.4
In short: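 Compounds at 1 μM were dosed apically or basolaterally on 5-day confluent cPgp-KO-MDCK monolayers, HBSS/HEPES/glucose pH 7.4 donor and receiver with 1% BSA, duplicate wells. Receiver samples at 2 h were analysed by LC-MS/MS to give A→B and B→A Papp plus % recovery; TEER confirmed integrity.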

[3] = PBS solubility (kinetic solubility from DMSO stocks); type: physicochemical; details: 22 °C, aqueous buffer, kinetic from dmso stock; 1x PBS pH 7.4, 1.0% DMSO, 24-hour incubation at ambient temperature
In short: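 Kinetic solubility in 1× PBS pH 7.4 with 1.0% final DMSO, maximum theoretical concentration 100 μM from 10 mM stock. After 24 h at ambient temperature (20.8-24.0 °C) the samples were vacuum-filtered and filtrates quantified by nitrogen detection against a calibration curve. Values were background-corrected and reported in μM and μg/mL.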

[4] = system: BxPC-3 (pancreas, adenocarcinoma; MTAP-Deleted); assay: In vitro cell viability assay (CellTiter-Glo, 9 days), BxPC-3; type: cell-based; details: Homo sapiens, BXPC-3, 216 h, 9-day treatment
Experimental: Some Compounds of the Disclosure were tested in Calu-6 (Vendor: ATCC; Cat #HTB-56; Description: lung, adenocarcinoma), LU99 (Vendor: JCRB; Cat #JCRB0080; Description: lung, giant cell carcinoma), SW780 (Vendor: ATCC; Cat #CRL-2169; Description: bladder, urothelial carcinoma), and BxPC-3 (Vendor: ATCC; Cat #CRL-1687; Description: pancreas, adenocarcinoma) cellular viability assays according to the general protocol. Seeded cells into 96-well plate and incubated overnight. Seeded an additional 10 wells per cell line in an additional 96-well plate for assessing Time Zero luminescence and incubated overnight. To treatment plates, added compounds into each well using Tecan D300e dispenser (nine three-fold dilutions starting at […]) and incubated for 9 days. Time Zero (no compound treatment, luminescence assessed on day 1) and 9-day treatment (luminescence assessed on day 10) plates were assessed using the same CellTiter-Glo® substrate protocol. Thawed CellTiter-Glo® Buffer and lyophilized CellTiter-Glo® substrate and equilibrated to room temperature prior to use. Transferred 100 ml CellTiter-Glo® Buffer into amber bottle containing CellTiter-Glo® substrate to reconstitute the lyophilized enzyme/substrate mixture. For Time Zero and 9-day treatment plates, removed all plating media. Added 100 μl fresh media/well. Added 100 μl CellTiter-Glo® Reagent per well. Mixed contents for 10 min on an orbital shaker to lyse cells. Recorded luminescence with Perkin Elmer Envision 2105 machine. Analyzed the data with GraphPad software.

[5] = brain Kp = [brain]/[plasma], cyno, read-out: Cyno brain Kp
[6] = brain Kpu,u = Kp * (plasma free/rat brain free), read-out: Cyno brain Kpu,u

For `C[C@H]1CN(C(=O)c2cc3c(cc2F)nc(N)c2cncn23)[C@H]2c3ccc(C(F)(F)F)cc3C[C@H]2O1` (single isomer, unassigned) [Ff-81], the Kp [1, 5] was 0.96, the Kp [1, 6] was 0.13 and the Papp A→B at 2 h, 1 µM [2] was 10.5 ×10⁻⁶ cm/s. It also gave a solubility at 24 h [3] of 18.5 µM (≈ 8.98 µg/mL).

For `Nc1nc2cc(F)c(C(=O)N3CCO[C@@H]4Cc5cc(C(F)(F)F)ccc5[C@@H]43)cc2n2cncc12` (single isomer, unassigned) [Ff-82], the Papp A→B at 2 h, 1 µM [2] was 8.8 ×10⁻⁶ cm/s and the solubility at 24 h [3] was 17.9 µM (≈ 8.44 µg/mL).

With `C[C@H]1CN(C(=O)c2cc3c(cc2F)nc(N)c2cncn23)[C@H]2c3cc(F)c(C(F)F)cc3C[C@H]2O1` (single isomer, unassigned) [Ff-173] the Papp A→B at 2 h, 1 µM [2] was 14.3 ×10⁻⁶ cm/s and the solubility at 24 h [3] was 9.9 µM (≈ 4.81 µg/mL).

Compound `C[C@@H]1CN(C(=O)c2cc3c(cc2F)nc(N)c2cncn23)[C@H]2c3ccc(OC(F)(F)F)cc3C[C@H]2O1` (single isomer, unassigned) [Ff-183] has a GI50 [4] of 12 nM, a Papp A→B at 2 h, 1 µM [2] of 10.3 ×10⁻⁶ cm/s and a solubility at 24 h [3] of 1.6 µM (≈ 0.802 µg/mL).

`C[C@@H]1CN(C(=O)c2cc3c(cc2F)nc(N)c2cncn23)[C@H]2c3cc(F)c(OC(F)(F)F)cc3C[C@H]2O1` (single isomer, unassigned) [Ff-197] gave a Kp [1, 5] of 1.2, a Kp [1, 6] of 0.28 and a Papp A→B at 2 h, 1 µM [2] of 16 ×10⁻⁶ cm/s. It also gave a solubility at 24 h [3] of less than 1 µM.

With `Nc1nc2cnc(C(=O)N3CC[C@H]4C[C@@H]3c3c(F)cc(C(F)(F)F)cc3O4)cc2n2cncc12` (single isomer, unassigned) [Ff-694] the Papp A→B at 2 h, 1 µM [2] was 19.7 ×10⁻⁶ cm/s and the solubility at 24 h [3] was 50.2 µM (≈ 23.7 µg/mL).

For `Nc1nc2cnc(C(=O)N3CCC[C@@H]4Oc5cc(C(F)(F)F)cc(F)c5[C@@H]43)cc2n2cncc12` (single isomer, unassigned) [Fg-53], the GI50 [4] was 7 nM, the Kp [1, 5] was 0.99 and the Kp [1, 6] was 0.16. It also gave a Papp A→B at 2 h, 1 µM [2] of 16.6 ×10⁻⁶ cm/s and a solubility at 24 h [3] of 19.9 µM (≈ 9.4 µg/mL).

For `Nc1nc2cnc(C(=O)N3CCC[C@@H]4Oc5cc(OC(F)(F)F)cc(F)c5[C@@H]43)cc2n2cncc12` (single isomer, unassigned) [Fg-55], the GI50 [4] was 11 nM, the Kp [1, 5] was 0.95 and the Kp [1, 6] was 0.12. For the same compound, the Papp A→B at 2 h, 1 µM [2] was 9.5 ×10⁻⁶ cm/s and the solubility at 24 h [3] was 13.7 µM (≈ 6.69 µg/mL).

`Nc1nc2cc(F)c(C(=O)N3CCC[C@@H]4Oc5cc(C(F)(F)F)ccc5[C@@H]43)cc2n2cncc12` [Ff-104, (4-amino-7-fluoroimidazo[1,5-a]quinoxalin-8-yl)((4aS,9bS)-7-(trifluoromethyl)-3,4,4a,9b-tetrahydrobenzofuro[3,2-b]pyridin-1(2H)-yl)methanone] gave a Kp [1, 5] of 1.78, a Kp [1, 6] of 0.19 and a solubility at 24 h [3] of less than 1 µM.

`Nc1nc2cnc(C(=O)N3CCC[C@@H]4Oc5c(ccc(C(F)(F)F)c5F)[C@@H]43)cc2n2cncc12` [Ff-109, (4-aminoimidazo[1,5-a]pyrido[3,4-e]pyrazin-8-yl)((4aS,9bS)-6-fluoro-7-(trifluoromethyl)-3,4,4a,9b-tetrahydrobenzofuro[3,2-b]pyridin-1(2H)-yl)methanone] gave a Papp A→B at 2 h, 1 µM [2] of 12.2 ×10⁻⁶ cm/s and a solubility at 24 h [3] of 2.3 µM (≈ 1.09 µg/mL).

With `Nc1nc2cnc(C(=O)N3CCC[C@@H]4Oc5cc(C(F)(F)F)ccc5[C@@H]43)cc2n2cncc12` [Ff-110, (4-aminoimidazo[1,5-a]pyrido[3,4-e]pyrazin-8-yl)((4aS,9bS)-7-(trifluoromethyl)-3,4,4a,9b-tetrahydrobenzofuro[3,2-b]pyridin-1(2H)-yl)methanone] the GI50 [4] was 7 nM, the Kp [1, 5] was 0.76 and the Kp [1, 6] was 0.1. It also gave a Papp A→B at 2 h, 1 µM [2] of 12.1 ×10⁻⁶ cm/s and a solubility at 24 h [3] of 1.7 µM (≈ 0.773 µg/mL).

`Nc1nc2ccc(C(=O)N3CCC[C@@H]4Oc5cc(C(F)(F)F)ccc5[C@@H]43)cc2n2cncc12` [Ff-111, (4-aminoimidazo[1,5-a]quinoxalin-8-yl)((4aS,9bS)-7-(trifluoromethyl)-3,4,4a,9b-tetrahydrobenzofuro[3,2-b]pyridin-1(2H)-yl)methanone] showed a GI50 [4] of 10 nM, a Kp [1, 5] of 1.1 and a Kp [1, 6] of 0.23. The Papp A→B at 2 h, 1 µM [2] was 15.3 ×10⁻⁶ cm/s and the solubility at 24 h [3] was 1.1 µM (≈ 0.499 µg/mL).

With `Cc1ncc2c(N)nc3cnc(C(=O)N4CCC[C@@H]5Oc6cc(OC(F)(F)F)ccc6[C@@H]54)cc3n12` [Ff-340, (4-amino-1-methylimidazo[1,5-a]pyrido[3,4-e]pyrazin-8-yl)((4aS,9bS)-7-(trifluoromethoxy)-3,4,4a,9b-tetrahydrobenzofuro[3,2-b]pyridin-1(2H)-yl)methanone] the GI50 [4] was 23 nM, the Kp [1, 5] was 1.1 and the Kp [1, 6] was 0.32. For the same compound, the Papp A→B at 2 h, 1 µM [2] was 16.3 ×10⁻⁶ cm/s and the solubility at 24 h [3] was less than 1 µM.

`Nc1nc2cnc(C(=O)N3CCC[C@@H]4Oc5cc(OC(F)(F)F)ccc5[C@@H]43)cc2n2cncc12` [Ff-341, (4-aminoimidazo[1,5-a]pyrido[3,4-e]pyrazin-8-yl)((4aS,9bS)-7-(trifluoromethoxy)-3,4,4a,9b-tetrahydrobenzofuro[3,2-b]pyridin-1(2H)-yl)methanone] gave a GI50 [4] of 14 nM, a Papp A→B at 2 h, 1 µM [2] of 10.3 ×10⁻⁶ cm/s and a solubility at 24 h [3] of 1.7 µM (≈ 0.8 µg/mL).

With `Nc1nc2cnc(C(=O)N3CC[C@H]4C[C@@H]3c3ccc(C(F)(F)F)cc3O4)cc2n2cncc12` [Ff-367, (4-aminoimidazo[1,5-a]pyrido[3,4-e]pyrazin-8-yl)((2S,6R)-9-(trifluoromethyl)-3,4-dihydro-2H-2,6-methanobenzo[b][1,5]oxazocin-5(6H)-yl)methanone] the Papp A→B at 2 h, 1 µM [2] was 13.7 ×10⁻⁶ cm/s and the solubility at 24 h [3] was 34.9 µM (≈ 15.9 µg/mL).

In the case of `Cc1ncn2c1c(N)nc1cnc(C(=O)N3CCC[C@@H]4Oc5cc(C(F)(F)F)ccc5[C@@H]43)cc12` [Ff-499, (4-amino-3-methylimidazo[1,5-a]pyrido[3,4-e]pyrazin-8-yl)((4aS,9bS)-7-(trifluoromethyl)-3,4,4a,9b-tetrahydrobenzofuro[3,2-b]pyridin-1(2H)-yl)methanone], the Kp [1, 5] was 2.4, the Kp [1, 6] was 0.51 and the Papp A→B at 2 h, 1 µM [2] was 17.8 ×10⁻⁶ cm/s. It also gave a solubility at 24 h [3] of less than 1 µM.

Compound `Nc1nc2cnc(C(=O)N3CC4(CC4)C[C@@H]4Oc5cc(C(F)(F)F)ccc5[C@@H]43)cc2n2cncc12` [Ff-648, (4-aminoimidazo[1,5-a]pyrido[3,4-e]pyrazin-8-yl)((4aS,9bS)-7-(trifluoromethyl)-4a,9b-dihydro-2H-spiro[benzofuro[3,2-b]pyridine-3,1′-cyclopropan]-1(4H)-yl)methanone] has a GI50 [4] of 8 nM, a Papp A→B at 2 h, 1 µM [2] of 10.9 ×10⁻⁶ cm/s and a solubility at 24 h [3] of 5.1 µM (≈ 2.45 µg/mL).

With `Nc1nc2cnc(C(=O)N3CC[C@H]4C[C@@H]3c3ccc(C(F)(F)F)c(F)c3O4)cc2n2cncc12` [Ff-684, (4-aminoimidazo[1,5-a]pyrido[3,4-e]pyrazin-8-yl)((2S,6R)-10-fluoro-9-(trifluoromethyl)-3,4-dihydro-2H-2,6-methanobenzo[b][1,5]oxazocin-5(6H)-yl)methanone] the Papp A→B at 2 h, 1 µM [2] was 10.7 ×10⁻⁶ cm/s and the solubility at 24 h [3] was 28.4 µM (≈ 13.4 µg/mL).

`Nc1nc2cnc(C(=O)N3CC[C@H]4C[C@@H]3c3ccc(OC(F)(F)F)cc3O4)cc2n2cncc12` [Ff-685, (4-aminoimidazo[1,5-a]pyrido[3,4-e]pyrazin-8-yl)((2S,6R)-9-(trifluoromethoxy)-3,4-dihydro-2H-2,6-methanobenzo[b][1,5]oxazocin-5(6H)-yl)methanone] showed a Papp A→B at 2 h, 1 µM [2] of 11.2 ×10⁻⁶ cm/s and a solubility at 24 h [3] of 16.1 µM (≈ 7.57 µg/mL).

Work on `[2H]C1([2H])CC[C@@H]2Oc3cc(C(F)(F)F)ccc3[C@@H]2N1C(=O)c1cc2c(cn1)nc(N)c1cncn12` [Fg-60, (4-aminoimidazo[1,5-a]pyrido[3,4-e]pyrazin-8-yl)((4aS,9bS)-7-(trifluoromethyl)-3,4,4a,9b-tetrahydrobenzofuro[3,2-b]pyridin-1(2H)-yl-2,2-d2)methanone] yielded a Papp A→B at 2 h, 1 µM [2] of 7 ×10⁻⁶ cm/s.

Reference: patent US12448388B2, “PRMT5 inhibitors and uses thereof” (Gilead Sciences, Inc., priority 2023, dated 2025)
